pIC50: −log10 of the molar value. Like-named read-outs stand apart in the source and are kept apart here.
Target: T1, human PRMT1 (Homo sapiens, UniProt Q99873)
T1 construct: GST-tagged PRMT1; made in house; host or cells: High Five insect cells (baculovirus)
Assay: biochemical
Excerpt: General Materials. S-adenosylmethionine (SAM), S-adenosylhomocysteine (SAH), bicine, Tween20, dimethylsulfoxide (DMSO), bovine skin gelatin (BSG), and Tris(2-carboxyethyl)phosphine hydrochloride solution (TCEP) were purchased from Sigma-Aldrich at the highest level of purity possible. ^3H-SAM was purchase from American Radiolabeled Chemicals with a specific activity of 80 Ci/mmol. 384-well streptavidin Flashplates were purchased from PerkinElmer.
Substrates. Peptide representative of human histone H4 residues 36-50 was synthesized with an N-terminal linker-affinity tag motif and a C-terminal amide cap by 21st Century Biochemicals. The peptide was purified by high-performance liquid chromatography (HPLC) to greater than 95% purity and confirmed by liquid chromatography mass spectrometry (LC-MS). The sequence was Biot-Ahx-[…]-amide (SEQ ID NO.:1).
Molecular Biology: Full-length human PRMT1 isoform 1 (NM_001536.5) transcript clone was amplified from an HEK 293 cDNA library, incorporating flanking 5′ sequence encoding a FLAG tag ([…]) (SEQ ID NO.:2) fused directly to Met 1 of PRMT1. The amplified gene was subcloned into pFastBacI (Life Technologies) modified to encode an N-terminal GST tag and a TEV cleavage sequence
Protein Expression. Recombinant baculovirus were generated according to Bac-to-Bac kit instructions (Life Technologies). Protein over-expression was accomplished by infecting exponentially growing High Five insect cell culture at 1.5×10^6 cell/ml with 1:100 ratio of virus. Infections were carried out at 27° C. for 48 hours, harvested by centrifugation, and stored at −80° C. for purification.
Protein Purification. […] GST-tagged PRMT1 was eluted with 50 mM Tris, 2 mM glutathione, pH 7.8, dialysed in buffer A and concentrated to 1 mg/mL. The purity of recovered protein was 73%. Reference: Wasilko, D. J. and S. E. Lee: “TIPS: titerless infected-cells preservation and scale-up” Bioprocess J., 5 (2006), pp. 29-32.
General Procedure for PRMT1 Enzyme Assays on Peptide Substrates. The assays were all performed in a buffer consisting of 20 mM Bicine (pH=7.6), 1 mM TCEP, 0.005% BSG, and 0.002% Tween 20, prepared on the day of use. Compounds in 100% DMSO (1 ul) were spotted into a polypropylene 384-well V-bottom plates (Greiner) using a Platemate Plus outfitted with a 384-channel head (Thermo Scientific). DMSO (1 ul) was added to Columns 11, 12, 23, 24, rows A-H for the maximum signal control and 1 ul of SAH, a known product and inhibitor of PRMT1, was added to columns 11, 12, 23, 24, rows I-P for the minimum signal control. A cocktail (40 ul) containing the PRMT1 enzyme was added by Multidrop Combi (Thermo-Fisher). The compounds were allowed to incubate with PRMT1 for 30 min at room temperature, then a cocktail (10 ul) containing SAM and peptide was added to initiate the reaction (final volume=51 ul). The final concentrations of the components were as follows: PRMT1 was 0.5 nM, ^3H-SAM was 200 nM, non-radiolabeled SAM was 1.5 uM, peptide was 20 nM, SAH in the minimum signal control wells was 1 mM, and the DMSO concentration was 2%. The assays were stopped by the addition of non-radiolabeled SAM (10 ul) to a final concentration of 300 uM, which dilutes the ^3H-SAM to a level where its incorporation into the peptide substrate is no longer detectable. 50 ul of the reaction in the 384-well polypropylene plate was then transferred to a 384-well Flashplate and the biotinylated peptides were allowed to bind to the streptavidin surface for at least 1 hour before being washed once with 0.1% Tween20 in a Biotek EL×405 plate washer. The plates were then read in a PerkinElmer TopCount plate reader to measure the quantity of ^3H-labeled peptide bound to the Flashplate surface, measured as disintegrations per minute (dpm) or alternatively, referred to as counts per minute (cpm).
Where dpm=disintegrations per minute, cmpd=signal in assay well, and min and max are the respective minimum and maximum signal controls. […]

[1] = biochemical evaluation, peptide substrate, read-out: PRMT1 IC50
[2] = single experiment or average of multiple experiments, read-out: PRMT1 biochemical evaluation (numerical)

T1 sequence (Q99873 other isoform, or with tags, fused parts or gaps): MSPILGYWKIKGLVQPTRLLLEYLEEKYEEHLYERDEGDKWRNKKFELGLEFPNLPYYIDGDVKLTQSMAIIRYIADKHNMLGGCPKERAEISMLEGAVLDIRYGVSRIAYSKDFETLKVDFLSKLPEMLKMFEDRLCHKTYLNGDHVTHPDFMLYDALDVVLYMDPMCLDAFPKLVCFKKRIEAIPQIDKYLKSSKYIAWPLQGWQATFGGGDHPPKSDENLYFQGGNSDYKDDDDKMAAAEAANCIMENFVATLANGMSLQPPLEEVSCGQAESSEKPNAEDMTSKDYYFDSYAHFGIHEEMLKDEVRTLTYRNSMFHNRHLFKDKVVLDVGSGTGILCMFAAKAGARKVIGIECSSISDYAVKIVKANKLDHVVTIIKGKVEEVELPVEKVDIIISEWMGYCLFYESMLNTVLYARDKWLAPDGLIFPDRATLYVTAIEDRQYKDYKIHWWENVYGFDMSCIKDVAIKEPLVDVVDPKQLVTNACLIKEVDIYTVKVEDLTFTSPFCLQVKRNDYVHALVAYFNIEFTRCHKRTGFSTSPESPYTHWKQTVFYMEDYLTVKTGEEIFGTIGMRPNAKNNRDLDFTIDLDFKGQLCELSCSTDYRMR

Structure (SMILES)	pIC50 [1]	pIC50 [2]
CN(CCN)Cc1n[nH]c2ccc(OCc3ccccc3)cc12 [Compound 1B]	> 7.00	8.44
CC(C)COc1ccc2[nH]nc(CN(C)CCN)c2c1 [Compound 2, N1-((5-iso-butoxy-1H-indazol-3-yl)methyl)-N1-methylethane-1,2-diamine]	> 7.00	7.68
CNCCN(C)Cc1nn(C)c2ccc(OCC(C)C)cc12 [Compound 3, N^1-((5-iso-butoxy-1-methyl-1H-indazol-3-yl)methyl)-N^1,N^2-dimethylethane-1,2-diamine]	> 7.00	7.25
CNCCN(C)Cc1n[nH]c2ccc(OCCOC)cc12 [Compound 5, N^1-((5-(2-methoxyethoxy)-1H-indazol-3-yl)methyl)-N^1,N^2-dimethylethane-1,2-diamine]	> 7.00	7.41
CNCCN(C)Cc1n[nH]c2ccc(OCCCOC)cc12 [Compound 6]	> 7.00	7.72
CNCCN(C)Cc1n[nH]c2ccc(OCCc3ccccc3)cc12 [Compound 7]	> 7.00	8.18
CNCCN(C)Cc1n[nH]c2ccc(OCCC(C)C)cc12 [Compound 8]	> 7.00	8.11
CNCCN(C)Cc1n[nH]c2ccc(OC(C)Cc3ccccc3)cc12 (stereo not shown) [Compound 9]	> 7.00	7.97
CNCCN(C)Cc1n[nH]c2ccc(Oc3ccccc3)cc12 [Compound 10, N^1,N^2-dimethyl-N^1-((5-phenoxy-1H-indazol-3-yl)methyl)ethane-1,2-diamine]	> 7.00	7.79
CNCCN(C)Cc1n[nH]c2ccc(OC3CCCC3)cc12 [Compound 11]	> 7.00	8.48
CNCCN(C)Cc1n[nH]c2ccc(OCc3ccccn3)cc12 [Compound 12]	> 7.00	7.56
CNCCN(C)Cc1n[nH]c2ccc(OCc3ccc(C#N)cc3)cc12 [Compound 13]	> 7.00	7.06
CNCCN(C)Cc1n[nH]c2ccc(OCc3cccc(C#N)c3)cc12 [Compound 14]	> 7.00	7.63
CNCCN(C)Cc1n[nH]c2ccc(OCc3cc[nH]n3)cc12 [Compound 17]	> 7.00	7.29
CNCCN(C)Cc1n[nH]c2ccc(OC3CCCCC3)cc12 [Compound 18]	> 7.00	7.40
CNCCN(C)Cc1n[nH]c2ccc(OCC(C)c3ccccc3)cc12 (stereo not shown) [Compound 19]	> 7.00	7.80
CNCCN(C)Cc1n[nH]c2ccc(OCc3ccn(C)n3)cc12 [Compound 20]	> 7.00	8.20
CNCCN(C)Cc1n[nH]c2cccc(OCc3ccccc3)c12 [Compound 21]	> 7.00	7.88
CNCCN(C)Cc1n[nH]c2ccc(Oc3cccc(OC)c3)cc12 [Compound 22]	> 7.00	7.92
CNCCN(C)Cc1n[nH]c2ccc(OCc3ccc(C(C)=O)cc3)cc12 [Compound 23]	> 7.00	7.92
CNCCN(C)Cc1n[nH]c2ccc(Oc3ccccc3OC)cc12 [Compound 24]	> 7.00	7.90
CNCCN(C)Cc1n[nH]c2ccc(OC3CCOC3)cc12 (stereo not shown) [Compound 25, N^1,N^2-dimethyl-N^1-((5-((tetrahydrofuran-3-yl)oxy)-1H-indazol-3-yl)methyl)ethane-1,2-diamine]	≥ 7.00	7.09

Structure (SMILES)	pIC50 [1]	pIC50 [2]
CNCCN(C)Cc1n[nH]c2ccc(Oc3cccc(C)c3)cc12 [Compound 26]	> 7.00	7.36
CNCCN(C)Cc1n[nH]c2ccc(Oc3cccc(Cl)c3)cc12 [Compound 27, N^1-((5-(3-chlorophenoxy)-1H-indazol-3-yl)methyl)-N^1,N^2-dimethylethane-1,2-diamine]	> 7.00	7.50
CNCCN(C)Cc1n[nH]c2ccc(Oc3cccc(C#N)c3)cc12 [Compound 28]	> 7.00	7.65
CNCCN(C)Cc1n[nH]c2ccc(OC3CCOCC3)cc12 [Compound 29, N^1,N^2-dimethyl-N^1-((5-((tetrahydro-2H-pyran-4-yl)oxy)-1H-indazol-3-yl)methyl)ethane-1,2-diamine]	> 7.00	7.55
CNCCN(C)Cc1n[nH]c2ccc(Oc3ccccc3Cl)cc12 [Compound 30]	> 7.00	7.19
CNCCN(C)Cc1n[nH]c2cccc(OCCC(C)C)c12 [Compound 31]	≥ 7.00	7.33
CNCCN(C)Cc1nn(C)c2ccc(OCc3ccc(C#N)cc3)cc12 [Compound 32]	6.00 to 7.00	7.13
CNCCN(C)Cc1n[nH]c2ccc(OCc3ccn(CC(C)C)n3)cc12 [Compound 33]	6.00 to 7.00	7.35
CNCCN(C)Cc1c2cc(OCc3ccc(C#N)cc3)ccc2nn1C(C)C [Compound 34]	5.00 to 5.52	6.74
CNCCN(C)Cc1n[nH]c2ccc(OC)cc12 [Compound 35]	5.00 to 5.52	6.73
CNCCN(C)Cc1n[nH]c2ccc(O)cc12 [Compound 36, 3-((methyl(2-(methylamino)ethyl)amino)methyl)-1H-indazol-5-ol]	6.00 to 7.00	5.17
CNCCN(C)Cc1n[nH]c2ccc(Oc3ccc(C#N)cc3)cc12 [Compound 37]	5.52 to 6.00	5.19
CNCCN(C)Cc1nn(C2CCN(C(C)=O)CC2)c2ccc(OCc3ccc(C#N)cc3)cc12 [Compound 38]	5.00 to 5.52	6.26
CNCCN(C)Cc1n[nH]c2ccc(Oc3ccc(C(F)(F)F)cc3)cc12 [Compound 39]	> 7.00	5.64
CNCCN(C)Cc1n[nH]c2cccc(OCCC(O)CO)c12 (stereo not shown) [Compound 40]	6.00 to 7.00	5.41
CNCCN(C)Cc1n[nH]c2cccc(OCCCC(O)CO)c12 (stereo not shown) [Compound 41, 5-((3-((methyl(2-(methylamino)ethyl)amino)methyl)-1H-indazol-4-yl)oxy)pentane-1,2-diol]	6.00 to 7.00	7.17
CNCCN(C)Cc1n[nH]c2ccc(C(C)C)cc12 [Compound 42, N^1-((5-isopropyl-1H-indazol-3-yl)methyl)-N^1,N^2-dimethylethane-1,2-diamine]	≥ 7.00	6.11
CNCCN(C)Cc1n[nH]c2ccc(N3CCC4(CCCCC4)CC3)cc12 [Compound 43, N^1-((5-(3-azaspiro[5.5]undecan-3-yl)-1H-indazol-3-yl)methyl)-N^1,N^2-dimethylethane-1,2-diamine]	> 7.00	6.36
CNCCN(C)Cc1n[nH]c2ccc(C3CCOCC3)cc12 [Compound 44, N^1,N^2-dimethyl-N^1-((5-(tetrahydro-2H-pyran-4-yl)-1H-indazol-3-yl)methyl)ethane-1,2-diamine]	> 7.00	7.36
CNCCN(C)Cc1n[nH]c2ccc(C3=CCOCC3)cc12 [Compound 45]	> 7.00	7.43
CNCCN(C)Cc1n[nH]c2ccc(N3CCCCC3)cc12 [Compound 46, N^1,N^2-dimethyl-N^1-((5-(piperidin-1-yl)-1H-indazol-3-yl)methyl)ethane-1,2-diamine]	> 7.00	7.67
CNCCN(C)Cc1n[nH]c2ccc(C3CCCCC3)cc12 [Compound 47, N^1-((5-cyclohexyl-1H-indazol-3-yl)methyl)-N^1,N^2-dimethylethane-1,2-diamine]	≥ 7.00	7.26
